Data on five molecules can be found in patent publication US20250188067A1, “SALT AND CRYSTAL FORM OF DIPEPTIDYL PEPTIDASE INHIBITOR COMPOUND” (HAISCO PHARMACEUTICALS PTE. LTD., priority 2022, published 2025).

As a reminder, the solubility is the concentration that dissolves in the medium under given conditions. A lower solubility goes with a poorly soluble substance.

Data set [1] can be described thus: HPLC impurities of solid stability samples. The class given is physicochemical.
Data set [2] can be described thus: Hygroscopicity by Dynamic Vapour Sorption (DVS). Format: physicochemical. As to conditions: 25° C./80% RH. Here is the method: The hygroscopicity of the crystalline A of hydrochloride, crystalline A of malate and crystalline B of adipate was evaluated by a Dynamic Vapour Sorption (DVS) instrument. Crystalline form […] starts with ambient humidity (˜60% RH), and crystalline form B starts with 0% relative humidity (0% RH). The test collected mass change percentage of the sample under constant temperature conditions of 25° C., with changes in humidity (60% RH-95% RH-0% RH-95% RH or 0% RH-95% RH-0% RH). The test results are shown in FIGS. 103, 104 and 105 respectively.

Data set [3] is described as follows: Solid stability evaluation (XRPD and HPLC) at 25° C./60% RH and 40° C./75% RH. The class given is physicochemical. As to conditions: for Crystalline form change: XRPD.
The nature of data set [4]: The pharmacokinetic test of rat. The class given is in vivo. As to conditions: male SD rats, Gavage (3 mg/kg). Here is the method:
• 1.1 Test animals: male SD rats, about 220 g, 6 to 8 weeks old, 6 rats/compound. Purchased from Chengdu Senwell Experimental Animals Co., Ltd. • 1.2 Test design: On the day of the test, 6 SD rats were randomly divided into groups according to body weight. Water and no food for 12 to 14 hours one day before administration, and food 4 hours after administration.
Vehicle for intravenous administration: 5% DMA+5% Solutol+90% Saline; vehicle for gavage administration: 0.5% MC; the reference compound INS1007, which is Compound 2 in patent WO2015110826A1, was prepared according to the method of the patent.
Before and after administration, 0.1 mL of blood was taken from the orbit under isoflurane anesthesia. It was placed in an EDTAK2 centrifuge tube, and centrifuged at 5000 rpm and 4° C. for 10 min, and the plasma was collected. Time points of blood collection in the intravenous groups: 0, 5, 15, 30 min, 1, 2, 4, 6, 8, 24 h; time points of blood collection in the gavage groups: 0, 5, 15, 30 min, 1, 2, 4, 6, 8, 24 h. Before analysis and detection, all samples were stored at −80° C.

In data set [5] the target is Recombinant human DPP1 enzyme (Homo sapiens (Human), UniProt P53634). Nature of the data set: Activity detection test of DPP1 enzyme in vitro.
Data set [6] is described as follows: Dynamic solubility. The class given is physicochemical. To be noted: thermodynamic from solid, 37° C. As to the method:
A sample of about 0.9 mL was taken, centrifuged and filtered, tested the solid by XRPD, and tested the liquid by HPLC concentration and pH.

SMILES strings stand for the structures. Converted amounts (≈) assume the structure as drawn. A value given as a limit tells only on which side of the number the result lay.

Recombinant human DPP1 enzyme, sequence (P53634 25-134): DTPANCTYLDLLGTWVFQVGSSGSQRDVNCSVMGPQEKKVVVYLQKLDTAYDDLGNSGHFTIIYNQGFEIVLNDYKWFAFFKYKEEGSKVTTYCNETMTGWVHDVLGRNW
Recombinant human DPP1 enzyme, sequence (P53634 231-394): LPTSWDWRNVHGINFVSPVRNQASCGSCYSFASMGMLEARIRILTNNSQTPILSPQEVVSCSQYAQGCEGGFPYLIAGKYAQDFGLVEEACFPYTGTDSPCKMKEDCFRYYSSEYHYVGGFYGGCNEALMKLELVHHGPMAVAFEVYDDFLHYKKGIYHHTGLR
Recombinant human DPP1 enzyme, sequence (P53634 395-463): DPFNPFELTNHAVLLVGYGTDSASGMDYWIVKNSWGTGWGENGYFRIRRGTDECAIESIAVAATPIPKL

For the molecule `Cn1c(=O)oc2ccc(-c3ccc(C[C@@H](C#N)NC(=O)[C@@H]4CNCCCO4)c(F)c3)cc21.O=C(O)CC(O)C(=O)O` [crystalline A of malate], the “HPLC peak at RRT 1.00” value came to 99.89 in data set [1] (RRT 1.00, 25° C./60% RH/1 W); 99.91 in data set [1] (RRT 1.00, 25° C./60% RH/3 W); 99.92 in data set [1] (RRT 1.00, 40° C./75% RH/1 W); 99.92 in data set [1] (RRT 1.00, 40° C./75% RH/3 W); 99.90 in data set [1] (RRT 1.00, Starting). Further, the “HPLC impurity at RRT 1.12” value in data set [1] (RRT 1.12, 25° C./60% RH/1 W) stood at 0.11; in data set [1] (RRT 1.12, 25° C./60% RH/3 W), 0.09; in data set [1] (RRT 1.12, 40° C./75% RH/1 W), 0.08; in data set [1] (RRT 1.12, 40° C./75% RH/3 W) it was 0.08; in data set [1] (RRT 1.12, Starting), 0.10. Moreover, the water sorption in data set [2] is 1.27%. The “HPLC purity (Area %)” value in data set [3] (25° C./60% RH, 1 week) came to 99.89 Area %; in data set [3] (25° C./60% RH, 3 weeks) it was 99.91 Area %; in data set [3] (40° C./75% RH, 1 week), 99.92 Area %; in data set [3] (40° C./75% RH, 3 weeks), 99.92 Area %; in data set [3] (Starting) it was 99.90 Area %. The “Purity/Starting purity (%)” value in data set [3] (25° C./60% RH, 1 week) is reported as 100.0%; in data set [3] (25° C./60% RH, 3 weeks), 100.0%; in data set [3] (40° C./75% RH, 1 week), 100.0%; in data set [3] (40° C./75% RH, 3 weeks) it was 100.0%. The Crystalline form change entry in data set [3] (25° C./60% RH, 1 week) is reported as “No”; in data set [3] (40° C./75% RH, 1 week) it was “No”.
For the molecule `Cn1c(=O)oc2ccc(-c3ccc(C[C@@H](C#N)NC(=O)[C@@H]4CNCCCO4)c(F)c3)cc21.O=C(O)CCCCC(=O)O` [crystalline B of adipate], the “HPLC peak at RRT 1.00” value in data set [1] (RRT 1.00, 25° C./60% RH/1 W) stood at 99.71; in data set [1] (RRT 1.00, 25° C./60% RH/3 W) it was 99.72; in data set [1] (RRT 1.00, 40° C./75% RH/1 W), 99.74; in data set [1] (RRT 1.00, 40° C./75% RH/3 W), 99.72; in data set [1] (RRT 1.00, Starting), 99.74. In addition, the “HPLC impurity at RRT 1.12” value stood at 0.29 in data set [1] (RRT 1.12, 25° C./60% RH/1 W); 0.28 in data set [1] (RRT 1.12, 25° C./60% RH/3 W); 0.26 in data set [1] (RRT 1.12, 40° C./75% RH/1 W); 0.28 in data set [1] (RRT 1.12, 40° C./75% RH/3 W); 0.26 in data set [1] (RRT 1.12, Starting). The molecule also had a water sorption in data set [2] of 0.24%. Moreover, the “HPLC purity (Area %)” value in data set [3] (25° C./60% RH, 1 week) is on record as 99.71 Area %; in data set [3] (25° C./60% RH, 3 weeks) it was 99.72 Area %; in data set [3] (40° C./75% RH, 1 week) it was 99.74 Area %; in data set [3] (40° C./75% RH, 3 weeks), 99.72 Area %; in data set [3] (Starting) it was 99.74 Area %. Besides, the “Purity/Starting purity (%)” value is 100.0% in data set [3] (25° C./60% RH, 1 week); 100.0% in data set [3] (25° C./60% RH, 3 weeks); 100.0% in data set [3] (40° C./75% RH, 1 week); 100.0% in data set [3] (40° C./75% RH, 3 weeks). Moreover, the Crystalline form change entry is recorded as “No” in data set [3] (25° C./60% RH, 1 week) and “No” in data set [3] (40° C./75% RH, 1 week).
For the molecule `Cn1c(=O)oc2ccc(-c3ccc(C[C@@H](C#N)NC(=O)[C@@H]4CNCCCO4)cc3)cc21` [INS1007, reference compound], the F in data set [4] is given as 88.1%.
Consider `Cl.Cn1c(=O)oc2ccc(-c3ccc(C[C@@H](C#N)NC(=O)[C@@H]4CNCCCO4)c(F)c3)cc21` [crystalline A of hydrochloride], for which the “HPLC peak at RRT 1.00” value is listed as 99.60 in data set [1] (RRT 1.00, 25° C./60% RH/1 W); 99.67 in data set [1] (RRT 1.00, 25° C./60% RH/3 W); 99.59 in data set [1] (RRT 1.00, 40° C./75% RH/1 W); 99.63 in data set [1] (RRT 1.00, Starting). Also, the “HPLC impurity at RRT 1.06” value in data set [1] (RRT 1.06, 25° C./60% RH/1 W) came out at 0.26; in data set [1] (RRT 1.06, 25° C./60% RH/3 W) it was 0.21; in data set [1] (RRT 1.06, 40° C./75% RH/1 W) it was 0.20; in data set [1] (RRT 1.06, Starting) it was 0.21. Moreover, the “HPLC impurity at RRT 1.12” value is on record as 0.14 in data set [1] (RRT 1.12, 25° C./60% RH/1 W); 0.13 in data set [1] (RRT 1.12, 25° C./60% RH/3 W); 0.12 in data set [1] (RRT 1.12, 40° C./75% RH/1 W); 0.18 in data set [1] (RRT 1.12, 40° C./75% RH/3 W); 0.16 in data set [1] (RRT 1.12, Starting). In addition, the “HPLC impurity at RRT 1.16” value in data set [1] (RRT 1.16, 40° C./75% RH/3 W) stood at 0.06. The “HPLC impurity at RRT 1.28” value is reported as 0.09 in data set [1] (RRT 1.28, 40° C./75% RH/1 W) and 0.17 in data set [1] (RRT 1.28, 40° C./75% RH/3 W). The same molecule showed a water sorption in data set [2] of 0.47%. Moreover, the “HPLC purity (Area %)” value in data set [3] (25° C./60% RH, 1 week) amounted to 99.60 Area %; in data set [3] (25° C./60% RH, 3 weeks), 99.67 Area %; in data set [3] (40° C./75% RH, 1 week) it was 99.59 Area %; in data set [3] (40° C./75% RH, 3 weeks), 99.17 Area %; in data set [3] (Starting), 99.63 Area %. Moreover, the “Purity/Starting purity (%)” value in data set [3] (25° C./60% RH, 1 week) is reported as 100.0%; in data set [3] (25° C./60% RH, 3 weeks) it was 100.0%; in data set [3] (40° C./75% RH, 1 week), 100.0%; in data set [3] (40° C./75% RH, 3 weeks), 99.5%. Moreover, the Crystalline form change result in data set [3] (25° C./60% RH, 1 week) was “No”; in data set [3] (40° C./75% RH, 1 week), “No”.
`Cn1c(=O)oc2ccc(-c3ccc(C[C@@H](C#N)NC(=O)[C@@H]4CNCCCO4)c(F)c3)cc21` [Compound I, (S)—N—((S)-1-cyano-2-(2-fluoro-4-(3-methyl-2-oxo-2,3-dihydrobenzo[d]oxazol-5-yl)phenyl)ethyl)-1,4-oxazepane-2-carboxamide] displayed a F in data set [4] above 100%. Further, the “inhibitory activity against DPP1 (conclusion in words)” value in data set [5] is recorded as “high inhibitory activity”. For the same molecule, in data set [6] (simulated gastric fluid, SGF), the solubility at 1 h was above 5200 µg/mL, the solubility at 2 h is above 5200 µg/mL, the solubility at 4 h is above 5300 µg/mL and the solubility at 24 h was above 5200 µg/mL. In data set [6] (FaSSIF), this molecule had a solubility at 1 h of 370 µg/mL (≈ 844 µM), a solubility at 2 h of 360 µg/mL (≈ 821 µM), a solubility at 4 h of 350 µg/mL (≈ 798 µM) and a solubility at 24 h of 290 µg/mL (≈ 661 µM). Besides, in data set [6] (FeSSIF), the solubility at 1 h is 2700 µg/mL (≈ 6160 µM), the concentration in solution (solubility at 2 h) was 2700 µg/mL (≈ 6160 µM), the solubility at 4 h was 2700 µg/mL (≈ 6160 µM) and the solubility at 24 h was found to be 2300 µg/mL (≈ 5250 µM). In data set [6] (water, H2O), this molecule displayed a solubility at 1 h of 35 µg/mL (≈ 79.8 µM), a solubility at 2 h of 30 µg/mL (≈ 68.4 µM), a solubility at 4 h of 16 µg/mL (≈ 36.5 µM) and a solubility at 24 h of 16 µg/mL (≈ 36.5 µM).
